PMC12155470, “Novel Tetraene Macrodiolides Are Effective Inducers of Mitochondrial Apoptosis in Jurkat Cells” (International Journal of Molecular Sciences, 2025)
Read-outs that look alike come from different tables or passages of the source.

Assays:
[1] = test system: Jurkat, K562, U937, HEK293, and HeLa cell cultures; conditions: cited from earlier work
Jurkat cells [2] = assay: Cytochrome C assay (flow cytometry); assay type: cell-based, Human; conditions: compound at CC50 concentration, 6 h (Figure 4; method says four hours)
Excerpt: The quantification of cytochrome c release from the mitochondria in apoptotic cells was used to detect the mitochondrial pathway of apoptosis in the cells by flow cytometry. This study employed a direct labeling method that utilized an anti-cytochrome cFITC antibody, an anti-IgG1-FITC isotype control, and optimized fixation, permeabilization, and blocking buffers to detect cytochrome c by flow cytometry (Luminex®, Austin, TX, USA). […] The Jurkat cells were exposed to test substances at concentrations corresponding to their 24-h CC50 in these cells for a period of four hours. Thereafter, analysis by flow cytometry (NovoCyte Flow Cytometry™ Agilent, San Diego, CA, USA) was conducted. The acquired data were processed using NovoExpress® software (version 1.6.2) (ACEA (Agilent, Santa Clara, CA, USA)).
Figure 4 Detection of cytochrome c in Jurkat cells stained with a FlowCellect Cytochrome c Kit. The control compound, carbonyl cyanide m-chlorophenylhydrazone (CCCP), was administered at a concentration equal to its CC50 value. Compound 9d was added to the sample cells at a CC50 concentration (see the table of cell viability). The cells were incubated for 6 h. We compared the numerical values to determine the reliability of the differences observed between the control sample and the samples treated with the synthesized substances. […]

[3] = In vitro cytotoxic activity, 7-AAD flow cytometry, normal fibroblasts; assay type: cell-based; conditions: human, Wi-38 normal lung fibroblasts, normal fibroblasts Wi-38, 24 h incubation, mean ± SD, read-out: Fibrobl. (CC50)
Excerpt: (§1) The investigation focused on the assessment of the synthesized compounds’ toxicities, utilizing a panel of six diverse cell lines. The selection of cells was based on the specific features of their metabolism, namely, Jurkat, K562, U937, and HL60 cells are suspension cultures of oncohematologic origin, and HEK293 is a conditionally normal line transformed by adenovirus and often used as control cells along with fibroblasts. The normal fibroblast line (Wi-38) utilized in the experiment was diploid and was obtained from the lung tissue of an aborted fetus. The total cytotoxic activity of 16 compounds was studied using flow cytometry.
(§2) Human cancer cell lines, including Jurkat, K562, U937, HL60, and fibroblasts (Wi-38), were obtained from the European Authentic Cell Culture Collection and further cultured according to established standard protocols using sterile methods. The cells were cultivated in RPMI 1640 (for Jurkat and K562) and DMEM (for Wi-38 and HEK293) media (Gibco, Billings, MT, USA), with the addition of […] glutamine, 10% FBS (Sigma, Kanagawa, Japan), and 100 U/mL penicillin–streptomycin (Sigma). All cell types were cultivated in a humidified atmosphere containing 5% CO₂ at a temperature of 37 °C. Subculturing was performed at two- to three-day intervals. The cells were subsequently seeded into 24-well plates at a density of 5 × 10^4 cells per well and incubated overnight. Subsequent subculturing was then performed at two-day intervals, with a seeding density of 1 × 10^5 cells per 24-well plate, using RPMI medium with 10% FBS [49].
(§3) The dissolution of the compounds tested was initially performed in dimethyl sulfoxide (DMSO) with an initial solution of 100 mM in 10% DMSO. Subsequently, the solution was diluted in a complete culture medium, namely, Dulbecco’s medium, modified Eagle’s medium (DMEM), or Roswell Park Memorial Institute medium (RPMI). Substances were added at concentrations of 10, 1, 100, 10, 1, and 0.1 μM on the day after seeding and incubated for 24 h. Following this, the cells were washed with a phosphate-buffered saline (PBS) solution and stained with 7AAD dye, as per the manufacturer’s protocol for flow cytometry. The CC50 value, which characterizes the parameters of toxicity (i.e., the concentration of the compound required for 50% inhibition of cell viability in vitro), was calculated. logC versus % inhibition was plotted, and statistical data processing was performed using Excel and GraphPad Prism v.8.0.2 (San Diego, CA, USA, 2019). The data obtained from three independent experiments were expressed as the mean of three measurements for each concentration, with the standard deviation indicated as well. These values were then relative to the control values (0.1% DMSO), which were taken as 100%.
(§4) 7-AAD (7-aminoactinomycin D) dye (eBioscience™, San Diego, CA, USA) was used to assess cell viability. Following incubation with the test compounds, the cells were harvested, washed with a phosphate–salt buffer (PBS), and subjected to centrifugation at 400× g for five minutes. The cell sediment was resuspended in 200 μL of staining buffer for flow cytometry (PBS without calcium and magnesium, 2.5% FBS) and stained with a 1 mM 7-AAD dye solution for 15 min in the dark at room temperature. Subsequently, all samples, including experimental and control groups, were analyzed using a BD FACSAria™ III Cell Sorter flow cytometer (Milpitas, CA, USA).

[4] = In vitro cytotoxic activity, 7-AAD flow cytometry, Hek293; assay type: cell-based; conditions: human, HEK293 cells, conditionally normal line, 24 h incubation, mean ± SD
Excerpt: as §1, §2, §3, §4

U937 = assay: In vitro cytotoxic activity, 7-AAD flow cytometry, U937; assay type: cell-based, Human; conditions: 24 h incubation, mean ± SD, triplicate
Excerpt: as §1, §2, §3, §4

HL60 = assay: In vitro cytotoxic activity, 7-AAD flow cytometry, HL60; assay type: cell-based; conditions: Homo sapiens, HL-60, 24 h incubation, mean ± SD, triplicate
Excerpt: as §1, §2, §3, §4

Jurkat = assay: In vitro cytotoxic activity, 7-AAD flow cytometry, Jurkat; assay type: cell-based, Human; conditions: Homo sapiens, Jurkat, 24 h, 24 h incubation, mean ± SD, triplicate
Excerpt: as §1, §2, §3, §4

K562 = assay: In vitro cytotoxic activity, 7-AAD flow cytometry, K562; assay type: cell-based, Human; conditions: Homo sapiens, K562, 24 h, 24 h incubation, mean ± SD, triplicate
Excerpt: as §1, §2, §3, §4

Jurkat cells [5] = assay: Mitodamage assay (MitoSense Red, Annexin V-CF488A, 7-AAD); assay type: cell-based, Human; conditions: compound at CC50 concentration, four hours, MitoSense Red
Method: To this end, MitoSense Red, a fluorescent dye that accumulates predominantly in mitochondria and responds to changes in membrane potential, was utilized. […] Two dyes commonly employed for detecting apoptosis in cells are annexin V and 7AAD. […] Therefore, the dissipation of mitochondrial membrane potential and the associated apoptosis process in Jurkat tumor cells were analyzed in response to exposure to synthesized macrodiolides. MitoSense Red, Annexin V-CF488A, and 7-AAD were used as dyes for this analysis (see Figure 3). A flow cytometry kit (FlowCellect™ MitoDamage Kit from Millipore, Hayward, CA USA) was utilized, as it facilitates a multiparametric evaluation of three markers of cell health. These markers include changes in mitochondrial potential (early apoptosis and cell stress), phosphatidylserine expression on the cell surface (late apoptosis), and membrane permeability (cell death). The method of the simultaneous detection of mitochondrial damage was performed according to the well-known technique.  Figure 3 Detection changes in mitochondrial membrane potential (ΔΨ) and coupled early and late apoptosis in Jurkat cells treated with compounds 9d, 8d, 7d, and 6d. Staurosporine and carbonyl cyanide-m-chlorophenylhydrazone were utilized as control compounds. The addition of all the tested compounds was executed at the CC50 concentration (refer to the provided table for the cytotoxicities of the synthesized compounds). The staining of cells was conducted using MitoSense Red, Annexin V-CF488A, and 7-AAD. The incubation period lasted for a duration of four hours. The presence of three *** (p < 0.001) and two asterisks ** (p < 0.005) indicates the significance of the observed differences between the values obtained in the control sample and the samples treated with the synthesized substances (comparison was performed by one-way ANOVA). All experiments were performed in triplicate.

| Compound | CC50 ([1]; K562, HEK293, and HeLa) | CC50 ([1]; individual cell cultures Jurkat, U937) | cells releasing cytochrome c into the cytoplasm (Cytochrome loss %) (Jurkat cells [2]) | CC50 at 24 h [3] | CC50 at 24 h [4] | CC50 (U937; Homo sapiens, U-937, 24 h) | CC50 (HL60) | CC50 (Jurkat) | CC50 (K562) | Jurkat cells with reduced mitochondrial membrane potential (Δψ dissipation) (Jurkat cells [5]) | CC50 (U937) |
| --- | --- | --- | --- | --- | --- | --- | --- | --- | --- | --- | --- |
| O=C1CCCCCC(=O)OCCCCCC/C=C\CC/C=C\CCCCCCO1 | 60 to 150 nM | 10 to 20 nM | – | – | – | – | – | – | – | – | – |
| N#CC(C#N)=NNc1cccc(Cl)c1 [CCCP, carbonyl cyanide-m-chlorophenylhydrazone, reference compound] | – | – | 79.35% | – | – | – | – | – | – | – | – |
| O=C1CC/C=C\CC/C=C\CCC(=O)OCCC/C=C\CC/C=C\CCCO1 [Compound 6a] | – | – | – | 76.2 ± 7.62 nM | 52.3 ± 5.17 nM | 23.1 ± 2.11 nM | 19.8 ± 1.81 nM | 28.3 ± 2.65 nM | 24.8 ± 2.37 nM | – | – |
| O=C1CCC/C=C\CC/C=C\CCCC(=O)OCCC/C=C\CC/C=C\CCCO1 [Compound 6b] | – | – | – | 61.9 ± 6.27 nM | 46.2 ± 3.75 nM | 22.4 ± 2.24 nM | 20.4 ± 2.1 nM | 21.2 ± 1.97 nM | 21.5 ± 2.01 nM | – | – |
| O=C1CCCC/C=C\CC/C=C\CCCCC(=O)OCCC/C=C\CC/C=C\CCCO1 [Compound 6c] | – | – | – | 58.9 ± 5.81 nM | 42.8 ± 4.39 nM | 19.2 ± 1.87 nM | 20.1 ± 1.95 nM | 22.1 ± 2.14 nM | 19.7 ± 1.63 nM | – | – |
| O=C1CCCCC/C=C\CC/C=C\CCCCCC(=O)OCCC/C=C\CC/C=C\CCCO1 [Compound 6d] | – | – | – | 59.4 ± 5.46 nM | 44.3 ± 4.21 nM | 15.2 ± 1.56 nM | 15.7 ± 1.43 nM | 18.5 ± 1.78 nM | 16.9 ± 1.88 nM | 58.99% | – |
| O=C1CC/C=C\CC/C=C\CCC(=O)OCCCC/C=C\CC/C=C\CCCCO1 [Compound 7a] | – | – | – | 67.2 ± 6.39 nM | 49.9 ± 4.83 nM | 22.2 ± 2.34 nM | 20.4 ± 2.07 nM | 26.4 ± 2.46 nM | 23.6 ± 2.14 nM | – | – |
| O=C1CCC/C=C\CC/C=C\CCCC(=O)OCCCC/C=C\CC/C=C\CCCCO1 [Compound 7b] | – | – | – | 62.6 ± 5.94 nM | 53.1 ± 4.96 nM | 17.4 ± 1.71 nM | 18.2 ± 1.76 nM | 20.3 ± 2.04 nM | 18.1 ± 1.83 nM | – | – |
| O=C1CCCC/C=C\CC/C=C\CCCCC(=O)OCCCC/C=C\CC/C=C\CCCCO1 [Compound 7c] | – | – | – | 59.5 ± 5.37 nM | 46.3 ± 3.99 nM | 17.3 ± 1.62 nM | 15.3 ± 1.48 nM | 18.4 ± 1.86 nM | 16.7 ± 1.59 nM | – | – |
| O=C1CCCCC/C=C\CC/C=C\CCCCCC(=O)OCCCC/C=C\CC/C=C\CCCCO1 [Compound 7d] | – | – | – | 60.2 ± 5.21 nM | 48.6 ± 4.82 nM | 15.1 ± 1.43 nM | 14.5 ± 1.57 nM | 18.1 ± 1.91 nM | 17.1 ± 1.84 nM | 69.26% | – |
| O=C1CC/C=C\CC/C=C\CCC(=O)OCCCCC/C=C\CC/C=C\CCCCCO1 [Compound 8a] | – | – | – | 86.4 ± 7.11 nM | 64.3 ± 5.37 nM | 23.4 ± 2.27 nM | 21.8 ± 1.96 nM | 25.3 ± 2.63 nM | 22.3 ± 2.16 nM | – | – |
| O=C1CCC/C=C\CC/C=C\CCCC(=O)OCCCCC/C=C\CC/C=C\CCCCCO1 [Compound 8b] | – | – | – | 67.2 ± 6.24 nM | 48.2 ± 4.34 nM | 17.9 ± 1.83 nM | 18.7 ± 1.71 nM | 21 ± 2.34 nM | 19.2 ± 1.79 nM | – | – |
| O=C1CCCC/C=C\CC/C=C\CCCCC(=O)OCCCCC/C=C\CC/C=C\CCCCCO1 [Compound 8c] | – | – | – | 64.8 ± 6.35 nM | 47.3 ± 4.22 nM | 15.5 ± 1.49 nM | 14.7 ± 1.42 nM | 17.8 ± 1.73 nM | 16.9 ± 1.62 nM | – | – |
| O=C1CCCCC/C=C\CC/C=C\CCCCCC(=O)OCCCCC/C=C\CC/C=C\CCCCCO1 [Compound 8d] | – | – | – | 63.7 ± 6.07 nM | 51.1 ± 5.6 nM | 12.2 nM | 11.1 ± 1.39 nM | 16.1 ± 1.58 nM | 15.2 ± 1.46 nM | 75.42% | 12.2 ± 1.37 nM |
| O=C1CC/C=C\CC/C=C\CCC(=O)OCCCCCC/C=C\CC/C=C\CCCCCCO1 [Compound 9a] | – | – | – | 79.9 ± 6.9 nM | 54.9 ± 5.37 nM | 19.8 ± 1.97 nM | 20.2 ± 2.17 nM | 24.2 ± 2.39 nM | 20.4 ± 1.89 nM | – | – |
| O=C1CCC/C=C\CC/C=C\CCCC(=O)OCCCCCC/C=C\CC/C=C\CCCCCCO1 [Compound 9b] | – | – | – | 61.6 ± 5.92 nM | 52 ± 5.43 nM | 15.7 ± 1.53 nM | 15.6 ± 1.49 nM | 18.3 ± 2.04 nM | 17.3 ± 1.64 nM | – | – |
| O=C1CCCC/C=C\CC/C=C\CCCCC(=O)OCCCCCC/C=C\CC/C=C\CCCCCCO1 [Compound 9c] | – | – | – | 59.4 ± 5.29 nM | 49.2 ± 4.77 nM | 13.1 ± 1.31 nM | 12.8 ± 1.37 nM | 17.3 ± 1.59 nM | 14.7 ± 1.49 nM | – | – |
